In brackets after ≈: the same amount, converted by molar mass. Where a name gives a salt, the structure may show the parent alone. Read-outs that look alike come from different tables or passages of the source.
What was measured:
physchem = details: for solubility: water, Solubility in water at room temperature
Protocol: To a stirred colorless solution of (S)-4-acetamidophenyl 2-(tert-butoxycarbonylamino)-4-(methylthio)butanoate (0.5 g, 1.3 mmol) in dioxane (10 mL) was added 40 mL of HCl in dioxane (4M).

[1] = cited from earlier work
C57BL6 mice = assay: Acute acetaminophen-induced hepatotoxicity in mice (plasma ALT and AST)
Protocol: Hepatotoxicity was evaluated by measuring standard plasma enzymatic markers (Alanine transaminase (ALT) and Aspartate transaminase (AST)) of liver damage.

Row | melting point | solubility (physchem) | Compound | other results
1 | 230 to 237 °C |  | CC(=O)Nc1ccc(OC(=O)C(N)CSSCC(N)C(=O)O)cc1.Cl.Cl (centres unmarked) | 
2 | 225 to 228 °C |  | CSCC[C@H](N)C(=O)Oc1ccc(NC(C)=O)cc1 (as salt: HCl) [Compound (II-A), (S)-4-acetamidophenyl 2-amino-4-(methylthio)butanoate] | 
3 | 95 to 99 °C |  | CC(=O)Nc1ccc(OC(=O)C(CSSCC(NC(C)=O)C(=O)O)NC(C)=O)cc1 (centres unmarked) [Example 2, 2-acetamido-3-((2-acetamido-3-(4-acetamidophenoxy)-3-oxopropyl)disulfanyl)propanoic acid] | 
4 |  | 500 mg/mL (≈ 1770 mM) | CSCC[C@H](N)C(=O)Oc1ccc(NC(C)=O)cc1 [Compound (II-A), (S)-4-acetamidophenyl 2-amino-4-(methylthio)butanoate] | 
5 |  |  | O=C1N[C@H](C(=O)O)CS1 [L-2-oxothiazolidine-4-carboxylate] | GSH tissue levels ([1]; administered 30 minutes post-acetaminophen administration): 6.1 μmol/g of tissue; GSH tissue levels ([1]; administered 120 minutes post-acetaminophen administration): 5.3 μmol/g of tissue
6 |  | 47 mg/mL (≈ 113 mM) | CC(=O)Nc1ccc(OC(=O)C(N)CSSCC(NC(C)=O)C(=O)O)cc1 (centres unmarked) [II-D, 2-acetamido-3-((3-(4-acetamidophenoxy)-2-amino-3-oxopropyl)disulfanyl)propanoic acid] | 
7 | > 300 °C |  | CC(=O)Nc1ccc(OC(=O)C(N)CSSCC(N)C(=O)Oc2ccc(NC(C)=O)cc2)cc1 (centres unmarked) (as salt: trifluoroacetate) [Example 4, bis(4-acetamidophenyl)3,3′-disulfanediylbis(2-aminopropanoate)di(trifluoroacetate)] | 
8 |  |  | CC(=O)Nc1ccc(OC(=O)C(N)CSSCC(NC(C)=O)C(=O)O)cc1 (centres unmarked) [Compound II-D sodium salt, 2-acetamido-3-((3-(4-acetamidophenoxy)-2-amino-3-oxopropyl)disulfanyl)propanoic acid] | Solubility in water at room temperature (physchem): 52 mg/mL
9 |  | ~14.3 mg/mL (≈ 94.6 mM) | CC(=O)Nc1ccc(O)cc1 [Acetaminophen, N-(4-hydroxyphenyl)acetamide] | Treated mice with elevated ALT levels (C57BL6 mice; mouse, in vivo): 83%; Treated mice with increased AST levels (C57BL6 mice; mouse, in vivo): all
10 |  |  | CSCC[C@H](N)C(=O)O [l-methionine] | AST and ALT increases in acetaminophen-treated animals (C57BL6 mice; co-administration of equimolar doses of l-methionine and acetaminophen): significantly reduced; Serum AST and ALT levels (C57BL6 mice; oral l-methionine alone (167 mg/kg)): did not affect

— US9951001B2 (Acorda Therapeutics, Inc., priority 2008, dated 2018)
